Assay results from article PMC12176268, “Structural Features and Photophysical and Antiproliferative Properties of Me2N‑pbt-Cycloplatinated Complexes with Picolinate Ligands” (Inorganic Chemistry, 2025).

Key:
[1] = Catalytic oxidation and photooxidation of NADH monitored by 1H NMR; type: biochemical
From the text: NADH is a key coenzyme involved in many biocatalyzed redox reactions in living cells, and the adequate redox balance of the NADH/NAD^+ redox couple is an important indicator of the metabolic state of the cell. Indeed, the overall in-cell NADH level is higher in cancerous cells than in normal cells to ensure high cell proliferation. Therefore, any selective catalysis of intracellular NADH oxidation to NAD^+ by a metal complex in cancer cells can disrupt its intracellular redox balance, causing cell death. , The catalytic oxidation and photooxidation of NADH (2.8 mM) by 3 (0.8 mM) in DMSO/D2O (5/95 v/v) was monitored by ^1H NMR spectroscopy at 298 K (Figure S34). In the dark (NADH + 3 + dark), a new set of characteristic peaks at 9.33, 9.17, 8.81, 8.48, 8.43, 8.20, 8.16, 6.04, and 5.97 ppm, ascribed to the protons of NAD^+ (∼8%), were detected after 72 h. Light irradiation greatly accelerates the oxidation process. In fact, ∼33% of NADH was oxidized to NAD^+ after irradiation (460 nm, 2 h), with an oxidation turnover number (TON) of 1.4 after 2 h (TOF 0.7 h^–1). […] It should be noted that platinum(II) complexes showing biocatalytic activity on the NADH/NAD^+ redox couple are very scarce.
The time dependence of the catalytic oxidation and photooxidation of complex 3 (0.8 mM) with NADH (2.8 mM) in DMSO/D2O (5/95 v/v) was studied for 72 h in the dark or 2h with light irradiation (λexc = 460 nm) by ^1H NMR at 298 K. The conversion of NADH to NAD^+ was approximately calculated from the NMR data.

[2] = target: bovine serum albumin (BSA) (Bos taurus, UniProt P02769); assay: Quenching of intrinsic BSA fluorescence (Stern–Volmer, binding constant); conditions: 5 μM BSA, 20 mM PB pH 7.4, 1% DMSO, 1 h room temperature
Chain of bovine serum albumin (BSA) (P02769 25-607): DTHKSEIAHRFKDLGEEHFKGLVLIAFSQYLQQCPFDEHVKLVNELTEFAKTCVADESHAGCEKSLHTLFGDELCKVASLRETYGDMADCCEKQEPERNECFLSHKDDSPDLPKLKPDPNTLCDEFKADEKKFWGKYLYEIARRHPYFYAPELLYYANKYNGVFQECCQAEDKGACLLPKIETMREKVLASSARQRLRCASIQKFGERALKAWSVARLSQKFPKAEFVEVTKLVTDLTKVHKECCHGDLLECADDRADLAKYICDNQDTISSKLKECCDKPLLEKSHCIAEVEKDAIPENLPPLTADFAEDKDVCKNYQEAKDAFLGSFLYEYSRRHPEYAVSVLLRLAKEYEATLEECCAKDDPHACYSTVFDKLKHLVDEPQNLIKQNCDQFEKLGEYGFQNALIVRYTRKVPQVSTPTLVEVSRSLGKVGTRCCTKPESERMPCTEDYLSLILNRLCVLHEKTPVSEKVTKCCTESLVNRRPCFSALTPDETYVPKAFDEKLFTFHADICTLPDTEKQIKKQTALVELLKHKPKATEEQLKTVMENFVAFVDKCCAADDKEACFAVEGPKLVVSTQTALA
Protocol: In order to further characterize the interactions between complex 3 and BSA, we monitored the evolution of the intrinsic emission band of BSA upon excitation at 290 nm, attributed to the Trp213 residue located in the hydrophobic domain IIA, in the presence of an increasing concentration of complex 3. Briefly, the emission spectra of solutions containing 5 μM BSA dissolved in 20 mM PB buffer (pH 7.4) containing 1% DMSO incubated for 1 h at room temperature with concentrations of 3 ranging from 1 to 100 μM (Figure S33A) were recorded. […] The kinetics of the intermolecular quenching processes follow the Stern–Volmer eq : 2 F0/F=1+Ksv[3] where F 0 is the fluorescence intensity of pure BSA, F is the fluorescence intensity after the addition of 3, and K SV is the Stern–Volmer dynamic quenching efficiency (Figure S33B). K SV (eq ) can be expressed as the product of the quenching rate k q and the average lifetime of the fluorophore τ0 in the excited state, which is typically 10^–8 s. 3 KSV=kqτ0
The linear Stern–Volmer plot can be indicative of either a dynamic or static quenching mechanism.
It is further possible to determine the number of binding sites (n) and the binding constant (Kb) by plotting log((F0-F)/F) vs log([3]) (Figure S33C) according to eq . 4 log(F0−F/F)=logKb+nlog[3] […]

[3] = Stability in serum-free DMEM containing 5% DMSO by UV–vis; type: physicochemical; conditions: DMEM with 5% DMSO, 25 μM, 37 °C
From the text: The stability of complexes 1–4 was then investigated in more biologically relevant media by UV–visible spectroscopy. First, the stability of the complexes was studied in phosphate-buffered saline (PBS) containing 5% DMSO (Figure S30). […] Only a decrease in the intensity of all bands was observed, which could be attributed to partial aggregation and/or precipitation. […] The stability of complexes 1–4 was next studied in serum-free DMEM cell culture containing 5% DMSO (Figure S31). […] This final species seemed to have spectral features similar to those observed for complex 4 (Figure S31A). […] The similarity of the spectral features of the transformed species in all cases seemed to point to the formation of a common species upon incubation in DMEM, which we tentatively attribute to the decoordination of the picolinate ligands with a substituent-dependent kinetics; the COOH group favored the release of the picolinate ligand, while both NH2 and OH substituents seemed to slow down this process.
The UV–vis spectra of complexes 1–4 were recorded in PBS:DMSO (95/5) and serum-free DMEM:DMSO (95/5) at a concentration of 25 μM on a Cary 50 spectrophotometer (Varian).

## [Pt(Me2N-pbt)(3-OH-pic-κN,O)] [Complex 3]
[1]; 460 nm irradiation, 2 h
  TOF: 0.7 h^–1
[1]; 460 nm irradiation, after 2 h
  oxidation turnover number (TON): 1.4
[1]; NADH 2.8 mM, complex 0.8 mM, DMSO/D2O 5/95, 298 K, 460 nm, 2 h
  NADH oxidized to NAD+ after irradiation: ~33%
[1]; NADH 2.8 mM, complex 0.8 mM, DMSO/D2O 5/95, 298 K, dark, 72 h
  NAD+ formed from NADH in the dark: ~8%
[2]
  number of binding sites (n) on BSA: 0.9 ± 0.07
[2]; λexc 290 nm, τ0 10^–8 s
  quenching rate kq of BSA fluorescence: 2.21 ± 0.12 × 10^12 M^–1.s^–1
[3]; 24 h
  stability in serum-free DMEM, UV–vis spectral changes, 24 h: spectral features of both complexes changed
[3]; first 4 h, dark or with 5 min irradiation at 450 nm
  stability in serum-free DMEM, UV–vis spectral changes, first 4 h: no spectral changes
